Measured values published in paper PMC8952364, “Polyphenols as Inhibitors of Antibiotic Resistant Bacteria—Mechanisms Underlying Rutin Interference with Bacterial Virulence” (Pharmaceuticals, 2022).
In brackets after ≈: the same amount, converted by molar mass. Where two headings read alike, the source gives them in different places.

Key:
[1] = test system: Methicillin resistant S. aureus IBRS MRSA 011; experiment: Antimicrobial microdilution assay (MIC/MBC); format: cell-based, Staphylococcus aureus; settings: for MBC: subcultivation, 24 h at 37 °C, read-out: MBC
Protocol: (§1) The bacterial suspension (0.5 Mc Farland) was prepared, and twenty-fold dilutions of these suspensions were mixed in a 1:10 ratio with the corresponding polyphenol dilution (0.0039–1 mg/mL). Microtiter plates were incubated at 37 °C for 24 h. The lowest concentrations without visible growth (under a binocular microscope) were defined as MICs. The bactericidal concentrations (MBCs) were determined by serial subcultivation of 2 μL of the well’s content and further incubation for 24 h at 37 °C. Streptomycin (SigmaAldrich, Darmstadt, Germany) was used as a positive control. The polyphenols were obtained from Extrasynthese, Rhone, France (rutin, isoquercitrin) and SigmaAldrich, Germany (hesperetin, hesperidin, naringenin, naringin, taxifolin, morin, chlorogenic acid, ferulic acid, p-coumaric acid, and gallic acid). The stock compounds were prepared in ethanol (30%), and adequate ethanol concentrations were used as the negative control in the assays. Experiments were done in triplicate.

[2] = test system: P. aeruginosa IBRS P001; experiment: Antimicrobial microdilution assay (MIC/MBC); format: cell-based, Pseudomonas aeruginosa; settings: Pseudomonas aeruginosa, IBRSP001; for MIC: 37 °C, 24 h, read-out: MIC; for MBC: subcultivation, 24 h at 37 °C, read-out: MBC
Protocol: as §1

[3] = test system: P. aeruginosa MMA83; experiment: Antimicrobial microdilution assay (MIC/MBC); format: cell-based, Pseudomonas aeruginosa; settings: Pseudomonas aeruginosa, MMA83; for MIC: 37 °C, 24 h, read-out: MIC; for MBC: subcultivation, 24 h at 37 °C, read-out: MBC
Protocol: as §1

[4] = test system: E. coli IBRS E003; experiment: Antimicrobial microdilution assay (MIC/MBC); format: cell-based, Escherichia coli; settings: Escherichia coli, IBRSE003; for MIC: 37 °C, 24 h, read-out: MIC; for MBC: subcultivation, 24 h at 37 °C, read-out: MBC
Protocol: as §1

[5] = test system: E. coli IMD989; experiment: Antimicrobial microdilution assay (MIC/MBC); format: cell-based, Escherichia coli; settings: Escherichia coli, IMD989; for MIC: 37 °C, 24 h, read-out: MIC; for MBC: subcultivation, 24 h at 37 °C, read-out: MBC
Protocol: as §1

[6] = test system: A. baumannii 6077/12; experiment: Antimicrobial microdilution assay (MIC/MBC); format: cell-based, Acinetobacter baumannii; settings: Acinetobacter baumannii, 6077/12; for MIC: 37 °C, 24 h, read-out: MIC; for MBC: subcultivation, 24 h at 37 °C, read-out: MBC
Protocol: as §1

[7] = test system: A. baumannii S2/2; experiment: Antimicrobial microdilution assay (MIC/MBC); format: cell-based, Acinetobacter baumannii; settings: Acinetobacter baumannii, S2/2; for MIC: 37 °C, 24 h, read-out: MIC; for MBC: subcultivation, 24 h at 37 °C, read-out: MBC
Protocol: as §1

[8] = test system: K. pneumoniae IT977; experiment: Antimicrobial microdilution assay (MIC/MBC); format: cell-based, Klebsiella pneumoniae; settings: Klebsiella pneumoniae, IT977; for MIC: 37 °C, 24 h, read-out: MIC; for MBC: subcultivation, 24 h at 37 °C, read-out: MBC
Protocol: as §1

[9] = test system: K. pneumoniae Ni9; experiment: Antimicrobial microdilution assay (MIC/MBC); format: cell-based, Klebsiella pneumoniae; settings: Klebsiella pneumoniae, NI9; for MIC: 37 °C, 24 h, read-out: MIC; for MBC: subcultivation, 24 h at 37 °C, read-out: MBC
Protocol: as §1

[10] = test system: A. xylosoxidans 37F; experiment: Antimicrobial microdilution assay (MIC/MBC); format: cell-based, Achromobacter xylosoxidans; settings: Achromobacter xylosoxidans, 37F; for MIC: 37 °C, 24 h, read-out: MIC; for MBC: subcultivation, 24 h at 37 °C, read-out: MBC
Protocol: as §1

[11] = test system: S. infantis 1371/1; experiment: Antimicrobial microdilution assay (MIC/MBC); format: cell-based, Salmonella Infantis; settings: Salmonella enterica, 1371/1; for MIC: 37 °C, 24 h, read-out: MIC; for MBC: subcultivation, 24 h at 37 °C, read-out: MBC
Protocol: as §1

[12] = test system: HaCaT cells; experiment: Cytotoxicity in HaCaT cell line (crystal violet assay); format: cell-based, human; settings: Homo sapiens; HaCaT, 24 h treatment, crystal violet; read-out: IC50 (compound concentration that inhibited 50% of the cell growth)
Protocol: For determination of the polyphenols’ cytotoxic effect, a crystal violet assay was used, with modifications. The cytotoxic effect of polyphenols was analyzed on spontaneously immortalized human skin keratinocytes (HaCaT, AddexBio No. T0020001, San Diego, CA, USA) cell lines. […] Cells (1 × 10^4 cells/well) were seeded in a 96-well plate (Sarstedt, Nümbrecht, Germany) 24 h before treatment. […] Cells were incubated with the compounds for 24 h. […] After crystal violet was removed, the plates were washed in a stream of tap water and left to air-dry at room temperature for 24 h. The absorbance was measured in a microplate reader (Multiskan™ FC Microplate Photometer, Thermo Scientific™) at 590 nm. The results were expressed as IC50 value in μg/mL. The criterion used to categorize the cytotoxic activity polyphenols was as follows: […] All analyses were performed in triplicate; each replicate was also quantified three times. Data were expressed as mean standard deviation, where applicable.

[13] = test system: MRSA T144; set-up: method as in PMID 31385700; settings: cited from earlier work
[14] = test system: P. aeruginosa IBRS P001 biofilm; experiment: Crystal violet antibiofilm assay (biofilm formation); format: cell-based, Pseudomonas aeruginosa; settings: MIC and sub-MIC, 24 h, crystal violet, Figure 1
Protocol: After incubation, each well was washed twice with sterile PBS (phosphate-buffered saline, pH 7.4) and fixed with methanol for 10 min. After removal of methanol the plate was air-dried. The biofilm was stained with 0.1% crystal violet (Bio-Merieux, Marcy l’Etoile, France) for 30 min. The plate was washed with water, air dried, and the stain was dissolved with 200 μL of 96% ethanol (Zorka, Sabac, Serbia). The absorbance was read at 620 nm on a Multiskan™ FC microplate photometer (Thermo Scientific™, Waltham, MA, USA). The results are presented as biofilm forming capacity (%) compared to control.

[15] = test system: eleven antibiotic resistant strains of bacteria; experiment: Antimicrobial assay, summary over the examined strains; format: cell-based; settings: antibiotic resistant strains of Table 1; read-out: lowest MIC among the examined strains
Protocol: as §1

[16] = test system: S. aureus USA300; set-up: method as in PMID 34295320; settings: methicillin resistant strain; cited from earlier work
[17] = Staphylococcus aureus, MRSA, 37 °C, 24 h, read-out: MIC

Structure (SMILES)	MIC [1, 17]	MBC ([1]; Staphylococcus aureus, MRSA)	MIC [2]	MBC [2]	MIC [3]	MBC [3]	MIC [4]	MBC [4]	MIC [5]	MBC [5]	MIC [6]	MBC [6]	MIC [7]	MBC [7]	MIC [8]	MBC [8]	MIC [9]	MBC [9]	MIC [10]	MBC [10]	further results
O=c1c(O)c(-c2ccc(O)cc2O)oc2cc(O)cc(O)c12 [Morin, morin]	120 µg/mL (≈ 397 µM)	250 µg/mL (≈ 827 µM)	120 µg/mL (≈ 397 µM)	250 µg/mL (≈ 827 µM)	1000 µg/mL (≈ 3310 µM)	1000 µg/mL (≈ 3310 µM)	250 µg/mL (≈ 827 µM)	500 µg/mL (≈ 1650 µM)	> 1000 µg/mL	> 1000 µg/mL	500 µg/mL (≈ 1650 µM)	500 µg/mL (≈ 1650 µM)	500 µg/mL (≈ 1650 µM)	500 µg/mL (≈ 1650 µM)	> 1000 µg/mL	> 1000 µg/mL	500 µg/mL (≈ 1650 µM)	1000 µg/mL (≈ 3310 µM)	500 µg/mL (≈ 1650 µM)	1000 µg/mL (≈ 3310 µM)	MIC ([1]; Staphylococcus aureus, MRSA, restated in the discussion, read-out: MIC): 125 µg/mL (≈ 414 µM); MIC [11]: > 1000 µg/mL; MBC [11]: > 1000 µg/mL; IC50 [12]: 347 ± 16 µg/mL (≈ 1150 µM); MIC [13]: 32 µg/mL (≈ 106 µM)
O=C1c2c(O)cc(O)cc2OC(c2ccc(O)c(O)c2)C1O (stereo not shown) [Taxifolin, taxifolin]	250 µg/mL (≈ 822 µM)	500 µg/mL (≈ 1640 µM)	250 µg/mL (≈ 822 µM)	500 µg/mL (≈ 1640 µM)	1000 µg/mL (≈ 3290 µM)	> 1000 µg/mL	500 µg/mL (≈ 1640 µM)	1000 µg/mL (≈ 3290 µM)	1000 µg/mL (≈ 3290 µM)	1000 µg/mL (≈ 3290 µM)	500 µg/mL (≈ 1640 µM)	1000 µg/mL (≈ 3290 µM)	500 µg/mL (≈ 1640 µM)	500 µg/mL (≈ 1640 µM)	> 1000 µg/mL	> 1000 µg/mL	1000 µg/mL (≈ 3290 µM)	1000 µg/mL (≈ 3290 µM)	1000 µg/mL (≈ 3290 µM)	1000 µg/mL (≈ 3290 µM)	MIC ([1]; 37 °C, 24 h): 250 µg/mL (≈ 822 µM); MIC [11]: > 1000 µg/mL; MBC [11]: > 1000 µg/mL; reduction of biofilm formation (biomass), in words [14]: not significantly altered; IC50 [12]: 495 ± 47 µg/mL (≈ 1630 µM); MIC [15]: 250 µg/mL (≈ 822 µM); MIC [16]: 512 µg/mL (≈ 1680 µM)
